Read-outs that look alike come from different tables or passages of the source.
Assays:
[1] = log P (pH2.3); type: physicochemical
[2] = tested on: Phytophthora infestans; assay: whole plant or invertebrate; type: in vivo; conditions: in Solanum lycopersicum, 168 h, read-out: efficacy
[3] = method [b]: LC-MS, acidic range, pH 2.7, 0.1% aqueous formic acid and acetonitrile
[4] = method [c]: LC-MS, neutral range, pH 7.8, 0.001 molar aqueous ammonium bicarbonate and acetonitrile
[5] = method [b]: LC-MS, acidic range, pH 2.7, 0.1% aqueous formic acid and acetonitrile, HPLC on reversed-phase C 18
[6] = method [c]: LC-MS, neutral range, pH 7.8, 0.001 molar aqueous ammonium bicarbonate solution and acetonitrile, HPLC on reversed-phase C 18

| SMILES | log p [1, 3] | log p [1, 5] | also measured |
| --- | --- | --- | --- |
| Cc1cc(C(F)(F)F)nn1CC(=O)N1CCC(c2nc(/C=C\c3cccc4ccccc34)cs2)CC1 [Example I-2, 2-[5-Methyl-3-(trifluoromethyl)-1H-pyrazol-1-yl]-1-(4-{4-[(Z)-2-(naphthalen-1-yl)ethenyl]-1,3-thiazol-2-yl}piperidin-1-yl)ethanone] |  |  | chromatographic logP ([1]; reversed-phase HPLC column (C18), method [b]: LC-MS, acidic range, pH 2.7, 0.1% aqueous formic acid and acetonitrile): 4.52; pest or weed control at 500 ppm [2]: ≥ 70% |
| Cc1cc(C(F)(F)F)nn1CC(=O)N1CCC(c2nc(C#Cc3ccccc3Cl)cs2)CC1 [Example I-101] | 4.12^[b] |  |  |
| Cc1cc(C(F)(F)F)nn1CC(=O)N1CCC(c2nc(C#Cc3ccc(Cl)cc3)cs2)CC1 [Example I-102] | 4.37^[b] |  |  |
| COc1ccc(C#Cc2csc(C3CCN(C(=O)Cn4nc(C(F)(F)F)cc4C)CC3)n2)c(OC)c1 [Example I-104] | 3.67^[b] |  |  |
| Cc1cc(C(F)(F)F)nn1CC(=O)N1CCC(c2nc(C#Cc3ccc(Cl)cc3Cl)cs2)CC1 [Example I-105] | 4.72^[b] |  |  |
| COc1ccc(OC)c(C#Cc2csc(C3CCN(C(=O)Cn4nc(C(F)(F)F)cc4C)CC3)n2)c1 [Example I-106] | 3.65^[b] |  |  |
| CCc1cc(CC)n(CC(=O)N2CCC(c3nc(CCc4cccc5ccccc45)cs3)CC2)n1 [Example I-107] | 4.04^[b] |  |  |
| CCc1cc(C(F)(F)F)nn1CC(=O)N1CCC(c2nc(CCc3cccc4ccccc34)cs2)CC1 [Example I-108] | 4.65^[b] |  |  |
| O=C(Cn1nc(C(F)F)cc1C(F)F)N1CCC(c2nc(CCc3cccc4ccccc34)cs2)CC1 [Example I-109] | 4.25^[b] |  |  |
| CC(C)(C)c1cc(C(F)(F)F)n(CC(=O)N2CCC(c3nc(CCc4cccc5ccccc45)cs3)CC2)n1 [Example I-110] | 5.36^[b] |  |  |
| CC(C)(C)c1cc(C(F)(F)F)nn1CC(=O)N1CCC(c2nc(CCc3cccc4ccccc34)cs2)CC1 [Example I-111] | 5.14^[b] |  |  |
| CC(C)(C)c1cc(C(F)(F)C(F)(F)F)n(CC(=O)N2CCC(c3nc(CCc4cccc5ccccc45)cs3)CC2)n1 [Example I-112] | 5.78^[b] |  |  |
| CC(C)(C)c1cc(C(F)(F)C(F)(F)F)nn1CC(=O)N1CCC(c2nc(CCc3cccc4ccccc34)cs2)CC1 [Example I-113] | 5.54^[b] |  |  |
| O=C(Cn1nc(C(F)(F)F)cc1C(F)(F)F)N1CCC(c2nc(C#Cc3cccc4ccccc34)cs2)CC1 [Example I-114] | 5.03^[b] |  |  |
| CCc1cc(CC)n(CC(=O)N2CCC(c3nc(C#Cc4cccc5ccccc45)cs3)CC2)n1 [Example I-115] | 4.2^[b] |  |  |
| CCc1cc(C(F)(F)F)nn1CC(=O)N1CCC(c2nc(C#Cc3cccc4ccccc34)cs2)CC1 [Example I-116] | 4.8^[b] |  |  |
| O=C(Cn1nc(C(F)F)cc1C(F)F)N1CCC(c2nc(C#Cc3cccc4ccccc34)cs2)CC1 [Example I-117] | 4.41^[b] |  |  |
| CC(C)(C)c1cc(C(F)(F)F)n(CC(=O)N2CCC(c3nc(C#Cc4cccc5ccccc45)cs3)CC2)n1 [Example I-118] | 5.48^[b] |  |  |
| CC(C)(C)c1cc(C(F)(F)F)nn1CC(=O)N1CCC(c2nc(C#Cc3cccc4ccccc34)cs2)CC1 [Example I-119] | 5.14^[b] |  |  |
| CC(C)(C)c1cc(C(F)(F)C(F)(F)F)nn1CC(=O)N1CCC(c2nc(C#Cc3cccc4ccccc34)cs2)CC1 [Example I-120] | 5.59^[b] |  |  |
| CC(C)c1cc(C(F)(F)F)n(CC(=O)N2CCC(c3nc(CCc4cccc5ccccc45)cs3)CC2)n1 [Example I-121] | 4.89^[b] |  |  |

| SMILES | log p [1, 3] | log p [1, 5] | also measured |
| --- | --- | --- | --- |
| CC(C)c1cc(C(F)(F)F)n(CC(=O)N2CCC(c3nc(C#Cc4cccc5ccccc45)cs3)CC2)n1 [Example I-122] | 4.99^[b] |  |  |
| Cc1cc(C(F)(F)F)nn1CC(=O)N1CCC(c2nc(CCc3ccc(Cl)cc3Cl)cs2)CC1 [Example I-123] | 4.74^[b] |  | log p [1, 4]: 4.77^[c]; |
| O=C(Cc1cc(Br)ccc1Br)N1CCC(c2nc(C#Cc3cccc4ccccc34)cs2)CC1 [Example I-124] | 5.47^[b] |  | log p [1, 4]: 5.52^[c]; |
| C#Cc1csc(C2CCN(C(=O)Cc3cc(Cl)ccc3Cl)CC2)n1 [Example I-125] | 3.08^[b] |  |  |
| Cc1ccccc1CCc1csc(C2CCN(C(=O)Cn3nc(C(F)(F)F)cc3C)CC2)n1 [Example I-126] | 4.08^[b] |  | log p [1, 4]: 4.16^[c]; |
| Cc1cc(C(F)(F)F)nn1CC(=O)N1CCC(c2nc(CCc3c(F)cccc3F)cs2)CC1 [Example I-128] | 3.9^[b] |  | log p [1, 4]: 3.97^[c], |
| Cc1cc(C(F)(F)F)nn1CC(=O)N1CCC(c2nc(CCC3CCCCC3)cs2)CC1 [Example I-132] | 5.01^[b] |  |  |
| Cc1cc(C(F)(F)F)nn1CC(=O)N1CCC(c2nc(CCC3CCCc4ccccc43)cs2)CC1 (centres unmarked) [Example I-133] | 4.95^[b] |  |  |
| O=C(Cn1nc(C(F)(F)F)cc1C(F)(F)F)N1CCC(c2nc(CCC3CCCCC3)cs2)CC1 [Example I-140] |  | 5.76^[b] |  |
| O=C(Cn1nc(C(F)F)cc1C(F)F)N1CCC(c2nc(CCC3CCCCC3)cs2)CC1 [Example I-148] |  | 4.87^[b] |  |
| O=C(Cn1nc(C(F)F)cc1C(F)F)N1CCC(c2nc(CCC3CCCc4ccccc43)cs2)CC1 (centres unmarked) [Example I-149] |  | 4.78^[b] |  |
| Cc1ccc(C)c(CC(=O)N2CCC(c3nc(CCc4ccccc4C)cs3)CC2)c1 [Example I-158] |  | 4.67^[b] | log p [1, 6]: 4.77^[c]; |
| Cc1ccc(C)c(CC(=O)N2CCC(c3nc(CCc4c(F)cccc4F)cs3)CC2)c1 [Example I-160] |  | 4.48^[b] | log p [1, 6]: 4.55^[c]; |
| Cc1ccccc1C#Cc1csc(C2CCN(C(=O)Cn3nc(C(F)(F)F)cc3C)CC2)n1 [Example I-206] |  | 4.15^[b] | log p [1, 6]: 4.15^[c]; |
| Cc1cc(C(F)(F)F)nn1CC(=O)N1CCC(c2nc(C#Cc3ccccc3Br)cs2)CC1 [Example I-207] |  | 4.16^[b] | log p [1, 6]: 4.19^[c]; |
| Cc1cc(C(F)(F)F)nn1CC(=O)N1CCC(c2nc(C#Cc3c(F)cccc3F)cs2)CC1 [Example I-208] |  | 3.83^[b] | log p [1, 6]: 3.86^[c]; |
| Cc1cccnc1C#Cc1csc(C2CCN(C(=O)Cn3nc(C(F)(F)F)cc3C)CC2)n1 [Example I-210] |  | 2.72^[b] | log p [1, 6]: 2.95^[c]; |
| Cc1ccccc1C#Cc1csc(C2CCN(C(=O)Cn3nc(C(F)(F)F)cc3C(F)(F)F)CC2)n1 [Example I-212] |  | 4.73^[b] |  |
| O=C(Cn1nc(C(F)(F)F)cc1C(F)(F)F)N1CCC(c2nc(C#Cc3ccccc3Br)cs2)CC1 [Example I-213] |  | 4.74^[b] |  |
| O=C(Cn1nc(C(F)(F)F)cc1C(F)(F)F)N1CCC(c2nc(C#Cc3c(F)cccc3F)cs2)CC1 [Example I-214] |  | 4.4^[b] |  |
| Cc1cccnc1C#Cc1csc(C2CCN(C(=O)Cn3nc(C(F)(F)F)cc3C(F)(F)F)CC2)n1 [Example I-216] |  | 3.37^[b] |  |

| SMILES | log p [1, 3] | log p [1, 5] | also measured |
| --- | --- | --- | --- |
| Cc1ccccc1C#Cc1csc(C2CCN(C(=O)Cn3nc(C(F)F)cc3C(F)F)CC2)n1 [Example I-218] |  | 3.99^[b] | log p [1, 6]: 4.02^[c]; |
| O=C(Cn1nc(C(F)F)cc1C(F)F)N1CCC(c2nc(C#Cc3ccccc3Br)cs2)CC1 [Example I-219] |  | 4.04^[b] | log p [1, 6]: 4.04^[c]; |
| O=C(Cn1nc(C(F)F)cc1C(F)F)N1CCC(c2nc(C#Cc3c(F)cccc3F)cs2)CC1 [Example I-220] |  | 3.7^[b] | log p [1, 6]: 3.73^[c]; |
| Cc1cccnc1C#Cc1csc(C2CCN(C(=O)Cn3nc(C(F)F)cc3C(F)F)CC2)n1 [Example I-222] |  | 2.68^[b] | log p [1, 6]: 2.86^[c]; |
| Cc1noc(C)c1C#Cc1csc(C2CCN(C(=O)Cn3nc(C(F)F)cc3C(F)F)CC2)n1 [Example I-223] |  | 3.09^[b] |  |
| Cc1ccccc1C#Cc1csc(C2CCN(C(=O)Cc3cc(Cl)ccc3Cl)CC2)n1 [Example I-224] |  | 4.91^[b] |  |
| O=C(Cc1cc(Cl)ccc1Cl)N1CCC(c2nc(C#Cc3ccccc3Br)cs2)CC1 [Example I-225] |  | 4.91^[b] |  |
| O=C(Cc1cc(Cl)ccc1Cl)N1CCC(c2nc(C#Cc3c(F)cccc3F)cs2)CC1 [Example I-226] |  | 4.52^[b] |  |
| Cc1cccnc1C#Cc1csc(C2CCN(C(=O)Cc3cc(Cl)ccc3Cl)CC2)n1 [Example I-228] |  | 3.35^[b] | log p [1, 6]: 3.55^[c] |
| Cc1noc(C)c1C#Cc1csc(C2CCN(C(=O)Cc3cc(Cl)ccc3Cl)CC2)n1 [Example I-229] |  | 3.86^[b] |  |
| Cc1ccc(C)c(CC(=O)N2CCC(c3nc(C#Cc4ccccc4C)cs3)CC2)c1 [Example I-230] |  | 4.75^[b] | log p [1, 6]: 4.78^[c]; |
| Cc1ccc(C)c(CC(=O)N2CCC(c3nc(C#Cc4ccccc4Br)cs3)CC2)c1 [Example I-231] |  | 4.77^[b] | log p [1, 6]: 4.8^[c]; |
| Cc1ccc(C)c(CC(=O)N2CCC(c3nc(C#Cc4c(F)cccc4F)cs3)CC2)c1 [Example I-232] |  | 4.36^[b] | log p [1, 6]: 4.39^[c]; |
| Cc1ccc(C)c(CC(=O)N2CCC(c3nc(C#Cc4c(C)noc4C)cs3)CC2)c1 [Example I-235] |  | 3.67^[b] | log p [1, 6]: 3.71^[c]; |
| Cc1cccnc1/C=C\c1csc(C2CCN(C(=O)Cn3nc(C(F)(F)F)cc3C(F)(F)F)CC2)n1 [Example I-236] |  | 2.46^[b] |  |
| Cc1ccc(C)c(CC(=O)N2CCC(c3nc(/C=C\c4ccccc4C)cs3)CC2)c1 [Example I-237] |  | 4.86^[b] | log p [1, 6]: 4.95^[c]; |
| C#Cc1csc(C2CCN(C(=O)Cc3cc(C)ccc3C)CC2)n1 [Example I-238] |  | 2.93^[b]; | log p [1, 6]: 2.95^[c] |
| C#Cc1csc(C2CCN(C(=O)Cn3nc(C(F)F)cc3C(F)F)CC2)n1 [Example I-239] |  | 2.45^[b] |  |
| Brc1sc(C2CCNCC2)nc1CCc1ccccc1 [II-3, 4-[5-Bromo-4-(2-phenylethyl)-1,3-thiazol-2-yl]piperidine] |  |  | log p ([1]; pH 2.3, pH2.3, read-out: log P): 1.72 |

Reference: patent US7943774B2 (priority 2008, dated 2011)
